≈ marks a conversion by molar mass, not a printed value. Like-named read-outs stand apart in the source and are kept apart here.
Columns and labels:
MRSA ATCC 43300 [1] = assay: MIC and MBC determination (broth microdilution); format: cell-based; settings: Staphylococcus aureus
Description: (§1) The MIC values of Z33 against MRSA ATCC 43300 and S. aureus clinical isolates were measured according to the broth microdilution guidelines provided by the Clinical and Laboratory Standards Institute (CLSI). S. aureus ATCC 29213 was used as the quality control strain, and the quality control range was referred to the CLSI. The MIC value is defined as the lowest concentration of the compounds with no visible growth of bacteria. The MIC assay was independently repeated three times.
(§2) The MBC values of antibacterial agents were measured after incubation at 37 °C for 24 h. Briefly, 100 µL of bacterial solution from the three wells behind the corresponding well of MIC was absorbed and spread on the Mueller–Hinton Agar (MHA). The MBC refers to the lowest concentration corresponding to the amount of colony-forming unit (CFU) ≤ 5 on the medium after 18~24 h of incubation at 37 °C.

S. aureus ATCC 29213 [2] = assay: MIC and MBC determination (broth microdilution); format: cell-based; settings: Staphylococcus aureus
Description: as §1, §2

[3] = test system: S. aureus clinical strain 144; assay: MIC and MBC determination (broth microdilution); format: cell-based; settings: Staphylococcus aureus
Description: as §1, §2

[4] = test system: S. aureus clinical strain AD3; assay: MIC and MBC determination (broth microdilution); format: cell-based; settings: Staphylococcus aureus
Description: as §1, §2

MRSA ATCC 43300 [5] = assay: Determination of MPC (mutant prevention concentration); format: cell-based, Staphylococcus aureus
Description: (§3) The drug-resistant tendency suppression potential of Z33 and tiamulin was determined as described with minor modifications. In the test, for each S. aureus strain, 4 mL of overnight cultures were inoculated into 100 mL of fresh BHI broth and then incubated for 4.5 h at 37 °C with shaking (210 rpm). Cultures were centrifuged at 5000 r/min for 10 min. The supernatant was discarded and resuspended in the 4 mL of saline to achieve a bacterial density of ~3 × 10^10 CFU/mL. In total, 100 μL of each culture was spread onto MHA containing various concentrations of Z33 and tiamulin. […] Plates were incubated at 37 °C for a total of 72 h and recorded every 24 h for the appearance of colonies. MPC was defined as the lowest concentration with no growth of colonies on the agar plate. MPC was carried out in triplicate.

S. aureus ATCC 29213 [6] = assay: as above; format: cell-based, Staphylococcus aureus
Description: as §3

[7] = test system: S. aureus clinical strain 144; assay: as above; format: cell-based, Staphylococcus aureus
Description: as §3

[8] = test system: S. aureus clinical strain AD3; assay: as above; format: cell-based, Staphylococcus aureus
Description: as §3

MRSA ATCC 43300 [9] = assay: Time-kill kinetics assay; format: cell-based, Staphylococcus aureus; settings: 8 × MIC; over 24 h of exposure
Description: The time–kill kinetics curve of Z33 was determined according to previous reports. MRSA ATCC 43300 strains were grown in Mueller–Hinton Broth (MHB) at the starting inoculum of 10^6 CFU/mL. […] MHB without antibiotics was used as a control. At various time points (0, 3, 6, 9, and 24 h), 100 µL of samples were diluted with 0.9% saline and plated on MHA medium. CFU were recorded after 24 h of incubation at 37 °C.

MRSA ATCC 43300 [10] = assay: Post-antibiotic effect assay; format: cell-based, Staphylococcus aureus
Description: The PAE was measured using the method described by Jin et al.. MRSA ATCC 43300 cells were collected in the logarithmic phase and resuspended in MHB. The bacterial suspension (10^6 CFU/mL) was inoculated in MHB containing Z33 (final concentration is 2 × or 4 × MIC) and incubated for 1 or 2 h at 37 °C with shaking (210 rpm). The group without the drug served as a control. After treatment with various concentrations of Z33, samples were subjected to one-thousand-fold dilution with MHB to remove the drug and incubated at 37 °C. In total, 100 µL of the samples was serially diluted in 0.9% saline and plated onto MHA at various time points (0, 1, 2, 4, 8 h). MHA plates were incubated at 37 °C for 18~24 h to calculate CFU. The growth kinetic curves of MRSA treated with different drug concentrations were established by plotting log10 CFU/mL of bacterial counts versus time. PAE was presented in hours and calculated according to the following equation: PAE = TA − TC, where TA and TC are the time required for MRSA to rise by 1 log10 CFU/mL after drug removal in the treated and untreated cultures, respectively.

four S. aureus strains [11] = assay: microbe, parasite or virus in culture; format: cell-based, Staphylococcus aureus
Description: To assess the propensity for the development of bacterial resistance, the ability of Z33 and tiamulin to induce resistance to four strains were tested, respectively. Serial passages at 37 °C were performed daily in BHI broth containing sub-MIC concentration (1/4 MIC) of Z33 and tiamulin. The MIC values were daily determined and recorded by the broth microdilution method. A duration of 13 passages was performed in every case.

CYP3A4 = molecular target: T1, CYP3A4 (Homo sapiens, UniProt P08684); assay: CYP450 inhibition assay, human liver microsomes, testosterone probe; format: in vitro ADME
T1 construct: 40 µL of the human liver microsomal enzyme (final concentration is 0.5 g/L); tissue Research Institute for Liver Diseases Co., Ltd. (Shanghai, China); host or cells: human liver microsomes
Description: (§4) The inhibition effect of Z33 and tiamulin on the human liver microsomal enzyme was determined as described in the literature with some modifications. Experiments were performed in 96-well plates with a final incubation volume of 100 μL per well. 40 µL of the human liver microsomal enzyme (final concentration is 0.5 g/L), 20 µL of probe substrate (final concentration of testosterone and chlorzoxazone is 20 µmol/L), and 20 µL of test drug were mixed in each well. After preincubation at 37 °C for 5 min, the reactions were started by the addition of 20 μL of NADPH (final concentration is 1 mmol/L). Depending on the substrate, the chlorzoxazone and testosterone groups were incubated at 37 °C for 25 min and 10 min, respectively. The reaction was terminated by adding 100 µL of acetonitrile, and then the supernatant was centrifuged to analyse by LC-MS/MS.

CYP2E1 = molecular target: T2, CYP2E1 (Homo sapiens, UniProt P05181); assay: CYP450 inhibition assay, human liver microsomes, chlorzoxazone probe; format: in vitro ADME; settings: for IC50: human liver microsomes
T2 construct: 40 µL of the human liver microsomal enzyme (final concentration is 0.5 g/L); tissue Research Institute for Liver Diseases Co., Ltd. (Shanghai, China); host or cells: human liver microsomes
Description: as §4

[12] = Cytotoxicity test (MTT assay); format: cell-based; settings: mouse, RAW264.7 macrophages, RAW264.7, MTT, tested up to 20 μg/mL
Description: (§5) To assess the effects of tiamulin and Z33 on the viability of RAW264.7 macrophages, the MTT assay was performed according to previous reports. […] After discarding the MTT solution, DMSO (150 μL) was added to each well to dissolve all crystals. OD490nm was recorded using EnSight Multimode Plate Reader (PerkinElmer, […], USA).

RAW264.7 cells = assay: Cytotoxicity test (MTT assay); format: cell-based; settings: concentrations less than 5 μg/mL, 24 h, MTT
Description: as §5

[13] = Acute oral toxicity in mice; settings: both sexes, ICR, mouse, in vivo, 5 g/kg; acute oral toxicity, mice
Description: (§6) The acute toxicity of Z33 was performed in mice according to previous works with some modifications. The ICR mice were randomly divided into two groups (10 animals in each group, half male and half female) after 12 h of fasting. Z33 was prepared with 0.5% CMC-Na sodium as a suspension at a concentration of 5 g/kg. Mice in the test group were administered with Z33 suspension by oral administration route, and the control group received an equal dose of 0.5% CMC-Na. All the mice were observed critically once a day for 14 days. The test was repeated twice.

ICR mice = assay: Acute oral toxicity in mice; settings: mouse, in vivo, po, 5000 mg/kg
Description: as §6

MRSA ATCC 43300 [14] = assay: Neutropenic mouse thigh infection model; format: in vivo, mice
Description: The neutropenic mouse thigh infection model was used to determine the in vivo antibacterial activity of Z33 [23]. Briefly, female mice were rendered neutropenic (neutrophil count ≤ 100/mm^3) via intraperitoneal injection of cyclophosphamide on day 4 (150 mg/kg) and day 1 (100 mg/kg) before infection. MRSA ATCC 43300 cells were collected in the logarithmic phase and resuspended in 0.9% saline. The thigh infection model was established by injection of 100 μL of MRSA suspension (10^7 CFU/mL) into the posterior thighs of mice. After 2 h post-infection, mice were intravenously injected with tiamulin and Z33 at a dose of 20 mg/kg, and the untreated groups were administrated with an equal amount of saline. Mice were euthanized after treatment of 22 h, thigh tissue was aseptically collected, weighed, homogenized, and serially diluted in saline, respectively. CFU counts were determined by the flat colony counting method.

four S. aureus strains [15] = assay: MIC and MBC, summary over four strains; format: cell-based; settings: Staphylococcus aureus; range over four strains; read-out: MIC values against four S. aureus strains
Description: as §1, §2

four S. aureus strains [16] = assay: MPC, summary over four strains; format: cell-based, Staphylococcus aureus
Description: as §3

T2 sequence (P05181 whole entry): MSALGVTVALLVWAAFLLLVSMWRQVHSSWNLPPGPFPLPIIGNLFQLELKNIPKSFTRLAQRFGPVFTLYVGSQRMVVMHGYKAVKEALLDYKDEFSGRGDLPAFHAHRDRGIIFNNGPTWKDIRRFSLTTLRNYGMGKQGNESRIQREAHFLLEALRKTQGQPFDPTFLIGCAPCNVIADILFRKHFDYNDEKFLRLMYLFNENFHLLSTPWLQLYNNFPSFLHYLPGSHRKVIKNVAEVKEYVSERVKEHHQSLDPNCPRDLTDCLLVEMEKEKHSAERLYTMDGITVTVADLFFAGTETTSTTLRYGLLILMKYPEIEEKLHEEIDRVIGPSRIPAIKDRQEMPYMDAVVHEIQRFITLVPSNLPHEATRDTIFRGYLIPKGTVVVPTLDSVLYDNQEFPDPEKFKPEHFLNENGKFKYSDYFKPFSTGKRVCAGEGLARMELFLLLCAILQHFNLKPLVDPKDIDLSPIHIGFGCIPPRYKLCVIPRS
T1 sequence (P08684 whole entry): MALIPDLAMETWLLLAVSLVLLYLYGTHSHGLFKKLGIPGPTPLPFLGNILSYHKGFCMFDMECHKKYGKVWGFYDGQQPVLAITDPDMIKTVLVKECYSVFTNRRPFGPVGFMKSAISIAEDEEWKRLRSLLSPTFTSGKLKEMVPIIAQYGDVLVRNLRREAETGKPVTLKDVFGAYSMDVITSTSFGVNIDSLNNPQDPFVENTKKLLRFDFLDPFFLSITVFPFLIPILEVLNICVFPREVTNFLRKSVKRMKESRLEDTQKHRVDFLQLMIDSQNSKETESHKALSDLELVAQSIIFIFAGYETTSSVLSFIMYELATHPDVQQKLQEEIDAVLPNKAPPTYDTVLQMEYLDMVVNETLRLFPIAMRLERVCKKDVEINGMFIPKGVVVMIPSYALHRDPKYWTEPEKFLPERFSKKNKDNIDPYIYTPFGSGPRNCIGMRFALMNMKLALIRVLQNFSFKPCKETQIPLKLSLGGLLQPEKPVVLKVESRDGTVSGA

Compound `C=C[C@]1(C)C[C@@H](OC(=O)CSc2ccccc2NC(=O)Cn2cc(CN3CCN(c4ccc([N+](=O)[O-])cc4)CC3)nn2)[C@]2(C)[C@H](C)CC[C@]3(CCC(=O)[C@H]32)[C@@H](C)[C@@H]1O` [Compound Z33, 22-(2-(2-(4-((4-(4-nitrophenyl)piperazin-1-yl)methyl)-1H-1,2,3-triazol-1-yl)acetamido)phenyl)thioacety-l-yl-22-deoxypleuromutilin] has an MIC (MRSA ATCC 43300 [1]; first value of MIC/MBC cell) of 0.125 µg/mL (≈ 0.154 µM), an MBC (MRSA ATCC 43300 [1]; second value of MIC/MBC cell) of 0.25 µg/mL (≈ 0.307 µM) and an MIC (S. aureus ATCC 29213 [2]; ATCC29213, first value of cell) of 0.125 µg/mL (≈ 0.154 µM). The MBC (S. aureus ATCC 29213 [2]; ATCC29213, second value of cell) was 0.125 µg/mL (≈ 0.154 µM), the MIC ([3]; first value of cell) was 0.25 µg/mL (≈ 0.307 µM) and the MBC ([3]; second value of cell) was 0.25 µg/mL (≈ 0.307 µM). For the same compound, the MIC ([4]; first value of cell) was 0.25 µg/mL (≈ 0.307 µM), the MBC ([4]; second value of cell) was 0.25 µg/mL (≈ 0.307 µM) and the MPC (MRSA ATCC 43300 [5]) was 0.5 µg/mL. It also gave an MPC (S. aureus ATCC 29213 [6]) of 0.5 µg/mL, an MPC [7] of 0.5 µg/mL and an MPC [8] of 0.5 µg/mL. The “concentration showing inhibition of bacterial growth (time-kill)” value (MRSA ATCC 43300 [9]) was 1 µg/mL, the PAE (MRSA ATCC 43300 [10]; 2 × MIC, exposure for 1 h) was 2.24 h and the PAE (MRSA ATCC 43300 [10]; 2 × MIC, exposure for 2 h) was 2.18 h. The PAE (MRSA ATCC 43300 [10]; 4 × MIC, exposure for 1 h) was 3.89 h, the PAE (MRSA ATCC 43300 [10]; 4 × MIC, exposure for 2 h) was 3.93 h and the “fold decrease in susceptibility of the most resistant strain” value (four S. aureus strains [11]; after 13 passages) was 32 fold. The “fold increase in MICs” value (four S. aureus strains [11]; after 13 passages) was “approximately 16 fold”, the “passages after which resistance developed (≥ 4-fold MIC increase)” value (four S. aureus strains [11]; four S. aureus strains) was 8 passages and the “fold increase in MIC” value (four S. aureus strains [11]; in 7 passages, sub-MIC (1/4 MIC) exposure) was no more than 4 fold. For the same compound, the IC50 (CYP3A4) was 1.57 µM, the “fold difference of CYP2E1 IC50 relative to tiamulin” value (CYP2E1; Z33 vs tiamulin) was “at least 50 fold” and the IC50 (CYP2E1; Figure 6, read-out: IC50 CYP2E1 (value in plot key)) was 10.2 µM. The IC50 (CYP2E1; bound given in text, read-out: IC50 CYP2E1) was greater than 10 µM, the IC50 at 24 h [12] was no less than 20 µg/mL and the “cytotoxicity on RAW264.7 cells” value (RAW264.7 cells) was “No significant cytotoxicity”. For the same compound, the LD50 at 14 days [13] was greater than 5000 mg/kg, the mortality (ICR mice) was “None of the mice died” and the “MRSA inoculum in the thigh muscle” value (MRSA ATCC 43300 [14]; 20 mg/kg intravenous, after treatment for 24 h) was 7.065 ± 0.070 log10 CFU/g. For the same compound, the “reduction of bacterial load in the thigh muscle” value (MRSA ATCC 43300 [14]; 20 mg/kg intravenous, versus untreated group) was “approximately 1.358 log10 CFU/g”, the “reduction in CFUs compared with the control group” value (MRSA ATCC 43300 [14]; 20 mg/kg, p < 0.0001) was 1.358 log10 and the MIC (four S. aureus strains [15]) was 0.125 to 0.25 µg/mL (≈ 0.154 to 0.307 µM). For the same compound, the “MPCs to four S. aureus strains” value (four S. aureus strains [16]) was 0.5 µg/mL.

— PMC9370166, “In Vitro and In Vivo Antibacterial Activity, Toxicity and Resistance Analysis of Pleuromutilin Derivative Z33 against Methicillin-Resistant Staphylococcus aureus” (Molecules, 2022)
